# Assay results from patent publication US7517517B2 (Janssen Pharmaceutica N.V., priority 2002, dated 2009).
# Marks after values point to notes of the source that are not given here.
# What was measured:
# [1] = biological target: T1, rat mGlu5 receptor (Rattus norvegicus, UniProt P31424); test: [3H]Compound A binding to membranes from CHO-dhfr− cells expressing the rat mGlu5 receptor; conditions: 20 nM [3H]Compound A, 40 μg membranes; Compound 135 as blanc
# T1 construct: host or cells: CHO-dhfr- cells
# Procedure: (§1) Confluent cells were washed in ice-cold phosphate-buffered saline and stored at −20° C. until membrane preparation. After thawing, cells were suspended in 50 mM Tris-HCl, pH 7.4 and collected through centrifugation for 10 min at 23,500 g at 4° C. The cells were lysed in 10 mM hypotonic Tris-HCl, pH 7.4. After recentrifugation for 20 min at 30,000 g at 4° C., the pellet was homogenized with an Ultra Turrax homogenizer in 50 mM Tris-HCl, pH 7.4. Protein concentrations were measured by the Bio-Rad protein assay using bovine serum albumin as standard.
# (§2) After thawing, the membranes were homogenized using an Ultra Turrax homogenizer and suspended in ice-cold binding buffer containing 50 mM Tris-HCl (pH 7.4), 1.2 mM MgCl2, 2 mM CaCl2. For [^3H]Compound A binding, 20 to 160 μg membrane protein and a final concentration of 20 nM [^3H]Compound A was used. As indicated in the results section, different blancs were used to define non-specific binding. Incubation time and temperature as well as filtration were as described for rat mGlu1a receptor CHO-dhfr^− membranes. Expression of rat mGlu2, -3, -5 and mGlu6 receptors was confirmed by specific binding of [^3H]LY341495 (mGlu2, -3 and -6) or [^3H]MPEP (mGlu5). For [^3H]LY341495 binding, 1 nM (mGlu2 and mGlu3) or 10 nM (mGlu6) [^3H]LY341495 was used. […] Assay mixtures were incubated for 30 min (mGlu2 and mGlu3) or 60 min (mGlu6) at 4° C. […]
# [2] = biological target: T2, rat mGlu3 receptor (Rattus norvegicus, UniProt P31422); test: [3H]Compound A binding to membranes from CHO-dhfr− cells expressing the rat mGlu3 receptor; conditions: 20 nM [3H]Compound A, 40 μg membranes
# T2 construct: host or cells: CHO-dhfr- cells
# T2 sequence (P31422 23-879): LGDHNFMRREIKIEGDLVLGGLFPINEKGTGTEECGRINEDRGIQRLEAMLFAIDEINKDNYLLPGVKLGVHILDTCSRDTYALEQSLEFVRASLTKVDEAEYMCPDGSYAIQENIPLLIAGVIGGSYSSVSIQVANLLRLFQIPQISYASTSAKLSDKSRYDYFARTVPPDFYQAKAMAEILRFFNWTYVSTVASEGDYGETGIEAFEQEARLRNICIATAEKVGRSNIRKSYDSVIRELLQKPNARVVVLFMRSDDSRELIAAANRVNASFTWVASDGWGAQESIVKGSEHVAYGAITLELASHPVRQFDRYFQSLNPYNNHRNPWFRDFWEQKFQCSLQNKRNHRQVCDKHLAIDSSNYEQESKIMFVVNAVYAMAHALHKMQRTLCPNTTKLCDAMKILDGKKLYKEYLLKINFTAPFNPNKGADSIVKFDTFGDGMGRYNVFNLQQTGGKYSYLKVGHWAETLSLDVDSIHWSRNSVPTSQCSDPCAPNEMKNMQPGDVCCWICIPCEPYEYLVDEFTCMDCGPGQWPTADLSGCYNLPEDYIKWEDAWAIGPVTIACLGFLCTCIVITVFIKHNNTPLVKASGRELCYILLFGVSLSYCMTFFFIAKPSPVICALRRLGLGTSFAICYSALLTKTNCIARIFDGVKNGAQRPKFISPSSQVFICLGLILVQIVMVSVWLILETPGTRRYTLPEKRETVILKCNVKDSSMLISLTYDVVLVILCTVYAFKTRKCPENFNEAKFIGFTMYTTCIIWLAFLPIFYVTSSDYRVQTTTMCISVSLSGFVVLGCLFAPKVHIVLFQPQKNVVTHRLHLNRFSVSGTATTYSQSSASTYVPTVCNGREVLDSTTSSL
# Procedure: as §1, §2
# [3] = biological target: mGlu1 receptor (Rattus norvegicus, UniProt P23385); test: [3H]Compound A binding to rat brain membranes (cortex, hippocampus, striatum, cerebellum)
# Procedure: Tissue preparation. Male Wistar rats (˜200 g) were sacrificed by decapitation. The brains were rapidly removed and cortex, hippocampus, striatum and cerebellum were immediately dissected. The fresh tissue was homogenized with an Ultra Turrax in 20 volumes of 50 mM Tris-HCl, pH 7.4 and tissue was centrifuged at 23,500 g for 10 min. After homogenisation using a DUAL homogeniser, membranes were washed twice by centrifugation at 23,500 g for 10 min. The final pellet was suspended in 10 volumes of 50 mM Tris-HCl, pH 7.4 and frozen at −80° C.
# In vitro binding assay. After thawing, membranes from rat cortex, cerebellum, striatum and hippocampus were rehomogenized using a DUAL and suspended in ice-cold binding buffer containing 50 mM Tris-HCl, 1.2 mM MgCl2, 2 mM CaCl2, pH 7.4. The binding assay was carried out in a total volume of 0.5 ml containing 2.5 nM [^3H]Compound A and a membrane aliquot corresponding to 40 μg for cerebellar membranes, 60 μg for hippocampal membranes, 80 μg for striatal membranes or 150 μg for cortical membranes. […] After incubation for 30 min at 4° C., the labelled membranes were washed and harvested by rapid vacuum filtration over Whatman GF/C glass-fibre filters using a 40-well filtration manifold and radioactivity collected on the filters was counted as above.
# Data analysis was performed using the GraphPad Prism program (GraphPad Prism Software, Inc., San Diego, Calif.). Saturation binding experiments were analysed using a non-linear regression analysis. Inhibition curves were fitted using non-linear regression analysis fitting the one-site competition equation: Y=Bottom+((Top−Bottom)/1+10^X-LogIC50). Ki values were calculated using the Cheng-Prusoff equation: Ki=IC50/[1+([C]/KD)] where C is the concentration of radioligand and KD is the dissociation constant of the radioligand (Cheng and Prusoff, Biochem. Pharmacol. 22, 3099-3108, 1973). The observed on (kob) and off (koff) rate were calculated from association-dissociation curves using the one-phase-exponential association and decay equations in the Prism program, respectively. kon was calculated by subtracting koff from kob and dividing by the radioligand concentration. The two-tailed Student's t-test was used for statistical evaluation of the binding data: * p<0.05, ** p<0.01 and *** p<0.001. The Dunnett's t-test following a 2-way analysis of variance (with as factors compound concentration and experiment) were used to analyse the data from the IP experiments.
# [4] = biological target: T3, rat mGlu4 receptor (Rattus norvegicus, UniProt P31423); test: [3H]Compound A binding to membranes from CHO-dhfr− cells expressing the rat mGlu4 receptor; conditions: 20 nM [3H]Compound A, 40 μg membranes
# T3 construct: host or cells: CHO-dhfr- cells
# T3 sequence (P31423 33-912): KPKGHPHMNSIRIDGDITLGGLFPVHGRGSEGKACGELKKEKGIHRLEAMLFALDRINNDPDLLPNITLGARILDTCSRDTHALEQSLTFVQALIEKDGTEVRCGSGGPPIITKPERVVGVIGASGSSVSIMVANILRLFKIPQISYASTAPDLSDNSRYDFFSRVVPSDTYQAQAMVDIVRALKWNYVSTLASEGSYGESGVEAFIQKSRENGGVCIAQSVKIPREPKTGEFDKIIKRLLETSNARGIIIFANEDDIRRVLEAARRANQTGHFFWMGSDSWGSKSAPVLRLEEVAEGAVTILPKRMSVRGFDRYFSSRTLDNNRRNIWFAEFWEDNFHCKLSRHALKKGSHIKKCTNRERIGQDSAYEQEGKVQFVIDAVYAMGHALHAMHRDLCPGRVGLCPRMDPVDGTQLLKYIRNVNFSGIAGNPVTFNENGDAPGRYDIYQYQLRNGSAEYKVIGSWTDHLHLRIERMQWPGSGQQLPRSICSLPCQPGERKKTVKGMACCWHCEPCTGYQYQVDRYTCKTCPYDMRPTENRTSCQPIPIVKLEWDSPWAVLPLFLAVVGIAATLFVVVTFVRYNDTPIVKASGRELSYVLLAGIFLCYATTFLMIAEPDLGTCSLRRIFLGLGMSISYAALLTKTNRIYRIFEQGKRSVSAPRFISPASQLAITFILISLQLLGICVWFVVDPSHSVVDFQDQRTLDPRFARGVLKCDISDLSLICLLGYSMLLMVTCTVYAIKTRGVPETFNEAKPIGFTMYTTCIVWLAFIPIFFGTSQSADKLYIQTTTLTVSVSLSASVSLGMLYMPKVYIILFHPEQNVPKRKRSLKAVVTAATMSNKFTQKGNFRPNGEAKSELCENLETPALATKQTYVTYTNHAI
# Procedure: as §1, §2
# [5] = biological target: T4, rat mGlu1a receptor (Rattus norvegicus, UniProt P23385); test: [3H]Compound A binding to rat mGlu1a receptor CHO-dhfr− membranes (saturation, kinetics, inhibition); conditions: for observed association rate constant (kob): 2.5 nM radioligand
# T4 construct: host or cells: CHO-dhfr- cells
# T4 sequence (P23385 19-1199): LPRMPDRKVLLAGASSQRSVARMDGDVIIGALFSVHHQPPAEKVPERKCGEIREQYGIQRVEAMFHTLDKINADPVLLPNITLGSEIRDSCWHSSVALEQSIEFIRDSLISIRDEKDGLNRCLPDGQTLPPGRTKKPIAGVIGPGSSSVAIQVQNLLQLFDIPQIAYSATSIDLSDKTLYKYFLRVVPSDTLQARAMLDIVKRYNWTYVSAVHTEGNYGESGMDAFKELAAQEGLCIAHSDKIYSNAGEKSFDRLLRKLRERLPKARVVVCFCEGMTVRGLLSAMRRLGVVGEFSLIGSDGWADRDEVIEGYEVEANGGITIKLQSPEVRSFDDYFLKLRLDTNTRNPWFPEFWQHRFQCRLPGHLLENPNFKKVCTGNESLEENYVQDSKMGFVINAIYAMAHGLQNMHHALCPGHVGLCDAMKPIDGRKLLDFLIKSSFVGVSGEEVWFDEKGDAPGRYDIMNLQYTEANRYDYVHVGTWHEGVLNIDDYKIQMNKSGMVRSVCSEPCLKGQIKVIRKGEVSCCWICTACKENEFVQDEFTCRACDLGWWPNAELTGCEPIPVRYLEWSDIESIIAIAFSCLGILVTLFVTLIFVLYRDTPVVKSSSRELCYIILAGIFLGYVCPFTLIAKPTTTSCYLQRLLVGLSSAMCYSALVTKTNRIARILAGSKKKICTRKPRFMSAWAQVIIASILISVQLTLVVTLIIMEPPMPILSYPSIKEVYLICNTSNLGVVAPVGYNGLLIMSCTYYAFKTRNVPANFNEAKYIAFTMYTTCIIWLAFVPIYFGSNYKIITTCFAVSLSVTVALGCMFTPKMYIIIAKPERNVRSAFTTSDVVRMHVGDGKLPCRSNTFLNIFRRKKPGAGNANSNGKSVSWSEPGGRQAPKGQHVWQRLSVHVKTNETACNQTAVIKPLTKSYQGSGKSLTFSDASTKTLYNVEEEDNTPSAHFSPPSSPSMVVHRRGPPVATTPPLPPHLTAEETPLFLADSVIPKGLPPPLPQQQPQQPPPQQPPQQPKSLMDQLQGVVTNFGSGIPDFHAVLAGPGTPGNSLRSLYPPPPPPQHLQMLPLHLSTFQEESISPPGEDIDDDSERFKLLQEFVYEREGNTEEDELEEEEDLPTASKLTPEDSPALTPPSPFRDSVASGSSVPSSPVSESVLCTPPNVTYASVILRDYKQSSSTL
# [6] = biological target: T5, rat mGlu2 receptor (Rattus norvegicus, UniProt P31421); test: [3H]Compound A binding to membranes from CHO-dhfr− cells expressing the rat mGlu2 receptor; conditions: 20 nM [3H]Compound A, 40 μg membranes
# T5 construct: host or cells: CHO-dhfr- cells
# T5 sequence (P31421 19-872): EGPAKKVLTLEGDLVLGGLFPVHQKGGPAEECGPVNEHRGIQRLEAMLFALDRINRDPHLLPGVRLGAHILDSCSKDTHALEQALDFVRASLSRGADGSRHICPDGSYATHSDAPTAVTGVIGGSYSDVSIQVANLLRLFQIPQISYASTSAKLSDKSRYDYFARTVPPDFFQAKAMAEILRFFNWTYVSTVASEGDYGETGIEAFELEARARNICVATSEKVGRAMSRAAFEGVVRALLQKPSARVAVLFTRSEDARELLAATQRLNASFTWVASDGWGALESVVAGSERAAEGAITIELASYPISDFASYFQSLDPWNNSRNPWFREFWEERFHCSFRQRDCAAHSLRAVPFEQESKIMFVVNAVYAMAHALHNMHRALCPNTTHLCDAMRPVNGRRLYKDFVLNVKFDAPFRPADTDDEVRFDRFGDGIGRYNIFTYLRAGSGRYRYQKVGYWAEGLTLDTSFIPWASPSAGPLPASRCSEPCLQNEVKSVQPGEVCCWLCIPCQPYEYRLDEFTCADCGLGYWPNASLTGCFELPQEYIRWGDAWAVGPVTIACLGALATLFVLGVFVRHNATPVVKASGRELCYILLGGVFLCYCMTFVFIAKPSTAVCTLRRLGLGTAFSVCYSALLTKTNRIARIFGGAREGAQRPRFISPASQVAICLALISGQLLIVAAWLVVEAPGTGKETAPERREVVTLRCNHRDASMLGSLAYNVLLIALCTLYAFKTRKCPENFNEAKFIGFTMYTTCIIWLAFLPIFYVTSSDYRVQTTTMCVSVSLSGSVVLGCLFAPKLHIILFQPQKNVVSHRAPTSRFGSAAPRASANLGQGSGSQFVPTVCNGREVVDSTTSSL
# Procedure: as §1, §2
# [7] = biological target: T6, rat mGlu6 receptor (Rattus norvegicus, UniProt P35349); test: [3H]Compound A binding to membranes from CHO-dhfr− cells expressing the rat mGlu6 receptor; conditions: 20 nM [3H]Compound A, 40 μg membranes; Compound 135 as blanc
# T6 construct: host or cells: CHO-dhfr- cells
# T6 sequence (P35349 24-871): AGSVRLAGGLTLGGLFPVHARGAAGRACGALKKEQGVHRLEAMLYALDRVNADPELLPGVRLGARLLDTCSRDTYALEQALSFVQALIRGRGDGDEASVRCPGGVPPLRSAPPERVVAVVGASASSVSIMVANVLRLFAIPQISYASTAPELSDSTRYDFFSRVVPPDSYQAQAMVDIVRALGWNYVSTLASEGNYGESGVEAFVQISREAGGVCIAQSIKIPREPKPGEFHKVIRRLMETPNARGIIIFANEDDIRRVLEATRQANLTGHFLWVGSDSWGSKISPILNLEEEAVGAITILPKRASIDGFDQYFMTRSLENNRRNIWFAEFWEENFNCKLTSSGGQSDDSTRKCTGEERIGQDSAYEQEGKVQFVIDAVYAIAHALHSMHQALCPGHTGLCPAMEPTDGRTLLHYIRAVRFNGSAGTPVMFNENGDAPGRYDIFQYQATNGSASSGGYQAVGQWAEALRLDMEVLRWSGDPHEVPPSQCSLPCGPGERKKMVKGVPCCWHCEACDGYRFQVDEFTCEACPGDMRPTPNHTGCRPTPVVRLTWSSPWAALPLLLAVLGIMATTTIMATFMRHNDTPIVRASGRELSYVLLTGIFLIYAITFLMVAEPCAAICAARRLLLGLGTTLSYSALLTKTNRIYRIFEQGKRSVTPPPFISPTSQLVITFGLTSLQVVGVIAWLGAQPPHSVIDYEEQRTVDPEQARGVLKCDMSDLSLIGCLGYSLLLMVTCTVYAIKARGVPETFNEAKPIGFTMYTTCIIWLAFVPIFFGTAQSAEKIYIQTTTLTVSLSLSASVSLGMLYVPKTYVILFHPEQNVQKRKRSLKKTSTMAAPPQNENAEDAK
# Procedure: as §1, §2
# [8] = membranes from rat cerebellum, mean ± SD, 3 experiments
# [9] = membranes from rat cortex, mean ± SD, 3 experiments
# [10] = membranes from rat hippocampus, mean ± SD, 3 experiments
# [11] = membranes from rat striatum, mean ± SD, 3 experiments
# [12] = [3H]Compound A saturation binding in presence of BAY 36-7620 (100 nM), mean ± SD, 3 experiments
# [13] = [3H]Compound A saturation binding in presence of CPCCOEt (30 μM), mean ± SD, 3 experiments
# [14] = [3H]Compound A saturation binding in presence of NPS 2390 (10 nM), mean ± SD, 3 experiments
# [15] = [3H]Compound A saturation binding, control (absence of antagonist), mean ± SD, 3 experiments
smiles,measurement,setting,value
[3H]c1ccc(CC(=O)c2ccc3nc4c(cc3c2)CCCO4)cc1 [[^3H]Compound A],"SB (fmoles/mg protein), mGlu5",[1],38 fmoles/mg protein
same,melting point,,195 °C
same,"SB (fmoles/mg protein), mGlu3",[2]; Compound 135 as blanc,0 fmoles/mg protein
same,"SB (fmoles/mg protein), mGlu3",[2]; various blancs: 1 mM glutamate,0^a fmoles/mg protein
same,Kd,"[3]; all structures (cortex, hippocampus, striatum, cerebellum)",~1 nM
same,non-specific binding compared to total binding,[3]; cerebellum,10%
same,non-specific binding compared to total binding,[3]; cortex,25%
same,number of sites labelled as % of the number found in the cerebellum,[3]; cortex,11%
same,non-specific binding compared to total binding,[3]; hippocampus,30%
same,number of sites labelled as % of the number found in the cerebellum,[3]; hippocampus,about 16%
same,Bmax,[3]; [8],4302 ± 2042 fmoles/mg protein
same,Kd,[3]; [8],0.99 ± 0.36 nM
same,Bmax,[3]; [9],471 ± 68 fmoles/mg protein
same,Kd,[3]; [9],1.04 ± 0.4 nM
same,Bmax,[3]; [10],688 ± 125 fmoles/mg protein
same,Kd,[3]; [10],0.72 ± 0.22 nM
same,Bmax,[3]; [11],741 ± 48 fmoles/mg protein
same,Kd,[3]; [11],0.84 ± 0.23 nM
same,non-specific binding compared to total binding,[3]; striatum,25%
same,number of sites labelled as % of the number found in the cerebellum,[3]; striatum,about 16%
same,"SB (fmoles/mg protein), mGlu4",[4]; Compound 135 as blanc,82 fmoles/mg protein
same,"SB (fmoles/mg protein), mGlu4",[4]; various blancs: 0.1 mM L-SOP,57^b fmoles/mg protein
same,"SB (fmoles/mg protein), mGlu1","[5]; 10 nM [3H]Compound A, 20 μg membranes, Compound 135 as blanc, mean ± SD of 3 experiments",6057 fmoles/mg protein
same,specific binding as % of the total binding,"[5]; 20 μg protein per assay, non-specific binding with 1 μM compound 135",~92%
same,koff,[5]; 4° C.,0.00208 s⁻¹
same,specific binding after 2 min incubation as % of the quantity bound at equilibrium,[5]; 4° C.,about 70%
same,time to complete displacement after addition of excess compound 135,[5]; 4° C.,approximately 45 min
same,observed association rate constant (kob),[5]; 4° C.,0.6285 min⁻¹
same,kon,"[5]; 4° C., read-out: kon (kob−koff/radioligand concentration) (converted)",1.68e+06 M⁻¹ s⁻¹
same,time to dissociation after addition of 1 μM compound 135,[5]; 25° C.,≤ 2 min
same,observed association rate constant (kob),[5]; 25° C.,2.571 min⁻¹
same,observed association rate constant (kob),[5]; 37° C.,1.523 min⁻¹
same,Bmax,[5]; [12],5872 ± 1018 fmoles/mg protein
same,Kd,[5]; [12],5.21 ± 1.2 nM
same,Bmax,[5]; [13],7009 ± 1231 fmoles/mg protein
same,Kd,[5]; [13],3.17 ± 0.9 nM
same,Bmax,[5]; [14],6887 ± 2804 fmoles/mg protein
same,Kd,[5]; [14],2.9 ± 0.2 nM
same,Bmax,[5]; [15],7284 ± 970 fmoles/mg protein
same,Kd,[5]; [15],0.73 ± 0.09 nM
same,incubation time to maximal binding,"[5]; each incubation temperature (4, 25, 37° C.)",≤ 5 min
same,decrease of specific binding at pH 6,[5]; pH 6,22%
same,more binding sites labelled than [3H]quisqualate,[5]; rat mGlu1a receptor CHO-dhfr− membranes,~40%
same,Kd,"[5]; saturation, 30 min incubation, n=3",0.9 ± 0.14 nM
same,"SB (fmoles/mg protein), mGlu2",[6]; Compound 135 as blanc,0 fmoles/mg protein
same,"SB (fmoles/mg protein), mGlu2",[6]; various blancs: 1 mM glutamate,34^a fmoles/mg protein
same,"SB (fmoles/mg protein), mGlu6",[7],0 fmoles/mg protein
